# In publication PMC4383706 (Cancer prevention research (Philadelphia, Pa.), 2015):
# “Also recorded” adds a separate entry of the source. Read-outs that look alike come from different tables or passages of the source.
# How the values were obtained:
# [1] = system: OH-BBN-induced urinary bladder cancers; conditions: prior studies; at their HEDs (aspirin at doses in substantial excess of its HED), even when initiated after pre-invasive microscopic cancers; cited from earlier work
# [2] = system: OH-BBN-induced urinary bladder cancers; experiment: OH-BBN-induced urinary bladder cancer model; type: in vivo, Female Fischer-344 rats; conditions: for number of rats with large urinary bladder cancers (>200 mg) at end of study: vehicle 24/25; for final weights of urinary bladder plus cancers vs vehicle control: end of study, Supplementary Fig. 1A/1B
# [3] = NPX 40 mg/Kg BW gavage; for CI: serum
# [4] = system: OH-BBN-induced urinary bladder cancers; conditions: NPX limited treatment vs vehicle; Supplementary Fig. 3
# [5] = humans; cited from earlier work
# urinary bladder cancer = conditions: dogs; cited from earlier work
# colon adenomas = conditions: cited from earlier work
# [6] = system: colon, bladder, skin tumors; conditions: doses which correspond to human doses of 100 or 325 mg; cited from earlier work
# [7] = multiple clinical studies; cited from earlier work
# [8] = rats, omeprazole levels at the human equivalent dose; cited from earlier work
# [9] = low to moderate doses of aspirin
structure (smiles),measurement,setting,value
COc1ccc2cc([C@H](C)C(=O)OCCCCO[N+](=O)[O-])ccc2c1 [NO-NPX],blocking the development of large palpable cancers,[1],effective
"COc1ccc2cc([C@H](C)C(=O)O)ccc2c1 [NPX, naproxen]",number of rats with large urinary bladder cancers (>200 mg) at end of study,[2]; 1 week daily NPX (40 mg/kg BW/day)/1week vehicle (Group B),6/29
same,number of rats with large urinary bladder cancers (>200 mg) at end of study,[2]; 3 week daily NPX (40 mg/kg BW/day)/3 week vehicle (Group C),5/28
same,"rats with palpable cancers, protocol C","[2]; 3 weeks daily NPX/3 week vehicle, vehicle 96%, P<0.01",19%
same,inhibition of urinary bladder cancer formation,"[2]; NPX by gavage daily, 1 week on/1 week off, or 3 weeks on/3 weeks off, P<.005",73–82%
same,"rats with palpable cancers, protocol A","[2]; NPX daily, beginning 2 weeks after last OH-BBN, vehicle 96%, P<0.01",27%
same,reduction of urinary bladder cancer incidence,"[2]; NPX daily, P<0.01",approximately 75%
same,final weights of urinary bladder plus cancers vs vehicle control,[2],final weights were higher in vehicle controls than in any of the three NPX treatment groups; also recorded: significantly different from control
same,time for which serum levels greater than 100 uM were achieved following gavage,[3],less than 6 hours
same,CI,[3]; 14 Day (14 consecutive days),.049 L/h/kg
same,CI,[3]; 24 hour (1 day) time point,.058 L/h/kg
same,levels of phosphorylated AKT (S473),[4],"slightly, but significantly, decrease"
same,phosphorylation of PI3K,[4],"slightly, but significantly, decrease"
same,blocking the development of large palpable cancers,[1],effective
same,accumulation in urine,[5],preferentially accumulates in urine
CN1C(C(=O)Nc2ccccn2)=C(O)c2ccccc2S1(=O)=O [Piroxicam],therapeutic efficacy in urinary bladder cancer,urinary bladder cancer,has shown therapeutic efficacy
CC(=O)Oc1ccccc1C(=O)O [aspirin],blocking the development of large palpable cancers,[1],effective
same,decrease in advanced adenomas,colon adenomas; [9],35–40%
same,decrease in total adenomas,colon adenomas; [9],20–25%
same,preventive efficacy in animal models,[6],routinely ineffective
Cc1ccc(-c2cc(C(F)(F)F)nn2-c2ccc(S(N)(=O)=O)cc2)cc1 [celecoxib],blocking the development of large palpable cancers,[1],effective
same,decrease in advanced adenomas,colon adenomas; clinical trial,55–65%
same,decrease in total colon adenomas,colon adenomas; clinical trial,~45%
COc1ccc2[nH]c([S+]([O-])Cc3ncc(C)c(OC)c3C)nc2c1 (stereo not shown) [omeprazole],final weights of urinary bladder plus cancers vs vehicle control,[2],larger in size than tumors in rats given the vehicle alone
same,decrease of GI bleeding,[7],50–75%
same,acidity of the stomach,[8],decreased the acidity of the stomach
CN(CCOc1ccc(CC2SC(=O)NC2=O)cc1)c1ccccn1 (stereo not shown) [rosiglitazone],tumor latency,"[2]; rosiglitazone 10 mg/kg BW/day by gavage, 10 rats",greatly decreased tumor latency
CC1=C(CC(=O)O)c2cc(F)ccc2/C1=C\c1ccc([S+](C)[O-])cc1 (stereo not shown) [sulindac],blocking the development of large palpable cancers,[1],effective
